In patent US20230146239A1 (THE SCRIPPS RESEARCH INSTITUTE, priority 2020, published 2023):
In brackets after ≈: the same amount, converted by molar mass. Where two headings read alike, the source gives them in different places.

What was measured:
[1] = test system: VanA VRE E. faecalis (BM 4166); experiment: Impact of added LTA, phosphate, POPE on antimicrobial activity (MIC); assay type: cell-based, Enterococcus faecalis
Procedure: When NaH2PO4 or POPE was used instead of LTA, 10% brain-heart infusion broth containing 0.002% Tween®-80 with 100 μg/mL NaH2PO4 or 100 μg/mL POPE was used as the culture medium used for serial dilution. When additional G3 (H2N^+(CH2)3NHC(NH2)═NH2^+.2TFA) or Mg^2+ was used, 10% brain-heart infusion broth containing 0.002% Tween®-80 with 100 μg/mL G3 or 100 μg/mL MgCl2 and 100 μg/mL lipoteichoic acid was used as the culture medium for serial dilution of study group, 10% brain-heart infusion broth containing 0.002% Tween®-80 with 100 μg/mL G3 was used as the culture medium for serial dilution of control group.

VanA E. faecium (TX2465) = experiment: In vitro antimicrobial microdilution assay (MIC); assay type: cell-based, Enterococcus faecium
Source text: (§1) The lowest concentration of antibiotic (in μg/mL) capable of eliminating cell growth in the wells is the reported MIC value.

[2] = test system: VanA E. faecalis (ATCC BAA-2573); experiment: In vitro antimicrobial microdilution assay (MIC); assay type: cell-based, Enterococcus faecalis
Source text: as §1

[3] = test system: VanA E. faecalis (BM 4166); experiment: In vitro antimicrobial microdilution assay (MIC); assay type: cell-based, Enterococcus faecalis
Source text: as §1

[4] = test system: VanA E. faecium (ATCC BAA-2317); experiment: In vitro antimicrobial microdilution assay (MIC); assay type: cell-based, Enterococcus faecium
Source text: as §1

[5] = test system: VanA VRE E. faecalis BM 4166 and E. faecium ATCC BAA-2317; assay type: cell-based, Enterococcus faecalis, Enterococcus faecium; conditions: 10 μM added at 5 minutes
Procedure: The above bacterial solution was subjected to a subculture to obtain fresh mid-log phase bacterial cells (incubation time=6 hours). The bacterial suspension was diluted to a total volume of 7 mL with OD600=0.6.
After the cultured bacteria were harvested (3000 rpm, 4° C., 20 minutes), the white bacterial precipitate was washed and resuspended in 5 mM glucose and 5 mM HEPES buffer (1:1, 5.00 mL, pH=7.2).

Structure (SMILES)	MIC, VanA E. faecium TX2465 (VanA E. faecium (TX2465))	MIC, VanA E. faecalis ATCC BAA-2573 [2]	MIC, VanA E. faecalis BM 4166 [3]	MIC, VanA E. faecium ATCC BAA-2317 [4]	also measured
N=C(N)NCCCN [G3^+, H2N(CH2)3NHC(═NH2)NH2^+]	–	–	–	–	MIC ([1]; E. faecalis BM 4166, POPE 100 μg/mL, read-out: MIC, +POPE): > 800 µg/mL; MIC ([1]; E. faecalis BM 4166, read-out: MIC, −POPE): > 800 µg/mL
CN[C@H](CC(C)C)C(=O)N[C@H]1C(=O)N[C@@H](CC(N)=O)C(=O)N[C@H]2C(=O)NC3C(=O)N[C@H](C(=O)N[C@H](C(=O)N[C@@H](CCCNC(=N)N)C(N)=O)c4cc(O)cc(O)c4-c4cc3ccc4O)[C@H](O)c3ccc(c(Cl)c3)Oc3cc2cc(c3OC2OC(CO)C(O)[C@H](O)[C@@H]2O[C@H]2CC(C)(N)[C@H](O)[C@H](C)O2)Oc2ccc(cc2Cl)[C@H]1O (some centres unmarked) [Compound 12, Arg(NH2)-vancomycin]	8 µg/mL (≈ 4.99 µM)	4 µg/mL (≈ 2.49 µM)	16 µg/mL (≈ 9.97 µM)	4 µg/mL (≈ 2.49 µM)	–
CN[C@H](CC(C)C)C(=O)N[C@H]1C(=O)N[C@@H](CC(N)=O)C(=O)N[C@H]2C(=O)NC3C(=O)N[C@H](C(=O)N[C@H](C(=O)NCCNC(=N)N)c4cc(O)cc(O)c4-c4cc3ccc4O)[C@H](O)c3ccc(c(Cl)c3)Oc3cc2cc(c3OC2OC(CO)C(O)[C@H](O)[C@@H]2O[C@H]2CC(C)(N)[C@H](O)[C@H](C)O2)Oc2ccc(cc2Cl)[C@H]1O (some centres unmarked) [Compound 6, G2-vancomycin]	16 µg/mL (≈ 10.4 µM)	8 µg/mL (≈ 5.22 µM)	16 µg/mL (≈ 10.4 µM)	4 µg/mL (≈ 2.61 µM)	–
CN[C@H](CC(C)C)C(=O)N[C@H]1C(=O)N[C@@H](CC(N)=O)C(=O)N[C@H]2C(=O)NC3C(=O)N[C@H](C(=O)N[C@H](C(=O)N[C@@H](CCCNC(=N)N)C(=O)OC)c4cc(O)cc(O)c4-c4cc3ccc4O)[C@H](O)c3ccc(c(Cl)c3)Oc3cc2cc(c3OC2OC(CO)C(O)[C@H](O)[C@@H]2O[C@H]2CC(C)(N)[C@H](O)[C@H](C)O2)Oc2ccc(cc2Cl)[C@H]1O (some centres unmarked) [Compound 10, Arg(OMe)-vancomycin]	8 µg/mL (≈ 4.94 µM)	4 µg/mL (≈ 2.47 µM)	8 µg/mL (≈ 4.94 µM)	8 µg/mL (≈ 4.94 µM)	–
CN[C@H](CC(C)C)C(=O)N[C@H]1C(=O)N[C@@H](CC(N)=O)C(=O)N[C@H]2C(=O)NC3C(=O)N[C@H](C(=O)N[C@H](C(=O)NCCCCCCNC(=N)N)c4cc(O)cc(O)c4-c4cc3ccc4O)[C@H](O)c3ccc(c(Cl)c3)Oc3cc2cc(c3OC2OC(CO)C(O)[C@H](O)[C@@H]2O[C@H]2CC(C)(N)[C@H](O)[C@H](C)O2)Oc2ccc(cc2Cl)[C@H]1O (some centres unmarked) [Compound 8, G6-vancomycin]	16 µg/mL (≈ 10.1 µM)	4 µg/mL (≈ 2.52 µM)	16 µg/mL (≈ 10.1 µM)	4 µg/mL (≈ 2.52 µM)	–
CN[C@H](CC(C)C)C(=O)N[C@H]1C(=O)N[C@@H](CC(N)=O)C(=O)N[C@H]2C(=O)NC3C(=O)N[C@H](C(=O)N[C@H](C(=O)NC(CNC(=N)N)CNC(=N)N)c4cc(O)cc(O)c4-c4cc3ccc4O)[C@H](O)c3ccc(c(Cl)c3)Oc3cc2cc(c3OC2OC(CO)C(O)[C@H](O)[C@@H]2O[C@H]2CC(C)(N)[C@H](O)[C@H](C)O2)Oc2ccc(cc2Cl)[C@H]1O (some centres unmarked) [Compound 14, DiG-vancomycin]	4 µg/mL (≈ 2.49 µM)	2 µg/mL (≈ 1.25 µM)	8 µg/mL (≈ 4.99 µM)	1 µg/mL (≈ 0.623 µM)	–
CN[C@H](CC(C)C)C(=O)N[C@H]1C(=O)N[C@@H](CC(N)=O)C(=O)N[C@H]2C(=O)N[C@H]3C(=O)N[C@H](C(=O)N[C@H](C(=O)N[C@@H](CCCNC(N)=O)C(=O)OC)c4cc(O)cc(O)c4-c4cc3ccc4O)[C@H](O)c3ccc(c(Cl)c3)Oc3cc2cc(c3OC2OC(CO)C(O)[C@H](O)C2O[C@H]2CC(C)(NCc3ccc(-c4ccc(Cl)cc4)cc3)[C@H](O)[C@H](C)O2)Oc2ccc(cc2Cl)[C@H]1O (some centres unmarked) [Compound 23, Cit(OMe)-CBP-vancomycin]	–	–	–	–	bacterial cell membrane permeabilization [5]: reduced bacteria cell permeabilization
CN[C@H](CC(C)C)C(=O)N[C@H]1C(=O)N[C@@H](CC(N)=O)C(=O)N[C@H]2C(=O)N[C@H]3C(=O)N[C@H](C(=O)N[C@H](C(=O)N[C@@H](CCCNC(=N)N)C(=O)OC)c4cc(O)c(CN[C@@H](CCCNC(=N)N)C(=O)OC)c(O)c4-c4cc3ccc4O)[C@H](O)c3ccc(c(Cl)c3)Oc3cc2cc(c3OC2OC(CO)C(O)[C@H](O)C2O[C@H]2CC(C)(N)[C@H](O)[C@H](C)O2)Oc2ccc(cc2Cl)[C@H]1O (some centres unmarked) [Compound 28, Arg(OMe)-Arg(OMe)^Ar-vancomycin]	–	–	–	–	MIC (VanA E. faecium (TX2465); Enterococcus faecium, read-out: MIC, VanA E. faecium TX2465): 8 µg/mL (≈ 4.4 µM); MIC ([2]; Enterococcus faecalis, ATCCBAA2573, read-out: MIC, VanA E. faecalis ATCC BAA-2573): 1 µg/mL (≈ 0.55 µM); MIC ([3]; Enterococcus faecalis; read-out: MIC, VanA E. faecalis BM 4166): 8 µg/mL (≈ 4.4 µM); MIC ([4]; Enterococcus faecium, ATCCBAA2317; read-out: MIC, VanA E. faecium ATCC BAA-2317): 2 µg/mL (≈ 1.1 µM)
CN[C@H](CC(C)C)C(=O)N[C@H]1C(=O)N[C@@H](CC(N)=O)C(=O)N[C@H]2C(=O)N[C@H]3C(=O)N[C@H](C(=O)N[C@H](C(=O)N[C@@H](CCCNC(=N)N)C(=O)O)c4cc(O)cc(O)c4-c4cc3ccc4O)[C@H](O)c3ccc(c(Cl)c3)Oc3cc2cc(c3OC2OC(CO)C(O)[C@H](O)C2O[C@H]2CC(C)(N)[C@H](O)[C@H](C)O2)Oc2ccc(cc2Cl)[C@H]1O (some centres unmarked) [Compound 11, Arg-vancomycin]	–	–	–	–	MIC ([3]; Enterococcus faecalis, read-out: MIC, VanA E. faecalis BM 4166): 63 µg/mL (≈ 39.2 µM); MIC ([4]; Enterococcus faecium, ATCCBAA2317, read-out: MIC, VanA E. faecium ATCC BAA-2317): 63 µg/mL (≈ 39.2 µM)
CN[C@H](CC(C)C)C(=O)N[C@H]1C(=O)N[C@@H](CC(N)=O)C(=O)N[C@H]2C(=O)N[C@H]3C(=O)N[C@H](C(=O)N[C@H](C(=O)N[C@@H](CCCNC(=N)N)C(=O)O)c4cc(O)cc(O)c4-c4cc3ccc4O)[C@H](O)c3ccc(c(Cl)c3)Oc3cc2cc(c3OC2OC(CO)C(O)[C@H](O)C2O[C@H]2CC(C)(NCc3ccc(-c4ccc(Cl)cc4)cc3)[C@H](O)[C@H](C)O2)Oc2ccc(cc2Cl)[C@H]1O (some centres unmarked) [Compound 21, Arg-CBP-vancomycin]	–	–	–	–	bacterial cell membrane permeabilization [5]: reduced bacteria cell permeabilization
CN[C@H](CC(C)C)C(=O)N[C@H]1C(=O)N[C@@H](CC(N)=O)C(=O)N[C@H]2C(=O)NC3C(=O)N[C@H](C(=O)N[C@H](C(=O)N[C@@H](CCCNC(N)=O)C(=O)OC)c4cc(O)cc(O)c4-c4cc3ccc4O)[C@H](O)c3ccc(c(Cl)c3)Oc3cc2cc(c3OC2OC(CO)C(O)[C@H](O)[C@@H]2O[C@H]2CC(C)(N)[C@H](O)[C@H](C)O2)Oc2ccc(cc2Cl)[C@H]1O (some centres unmarked) [Compound 13, Cit(OMe)-vancomycin]	63 µg/mL (≈ 38.9 µM)	16 µg/mL (≈ 9.87 µM)	63 µg/mL (≈ 38.9 µM)	31 µg/mL (≈ 19.1 µM)	–
CN[C@H](CC(C)C)C(=O)N[C@H]1C(=O)N[C@@H](CC(N)=O)C(=O)N[C@H]2C(=O)NC3C(=O)N[C@H](C(=O)N[C@H](C(=O)NCCCCNC(=N)N)c4cc(O)cc(O)c4-c4cc3ccc4O)[C@H](O)c3ccc(c(Cl)c3)Oc3cc2cc(c3OC2OC(CO)C(O)[C@H](O)[C@@H]2O[C@H]2CC(C)(N)[C@H](O)[C@H](C)O2)Oc2ccc(cc2Cl)[C@H]1O (some centres unmarked) [Compound 7, G4-vancomycin]	16 µg/mL (≈ 10.2 µM)	4 µg/mL (≈ 2.56 µM)	16 µg/mL (≈ 10.2 µM)	4 µg/mL (≈ 2.56 µM)	–
